Measured values as given in US7368582B2, “Amidomethyl-substituted 2-(4-sulfonylamino)-3-hydroxy-3,4-dihydro-2H-chromen-6-yl compounds, a process and intermediates for their production, and pharmaceutical compositions containing them” (Solvay Pharmaceuticals GmbH, priority 2003, dated 2008).

Columns and labels:
Kv 1.3-potassium channel = target: T1, Kv 1.3-potassium channel (Homo sapiens, UniProt P22001); experiment: In-vitro Kv 1.3-potassium channel-blocking effect (membrane potential-sensitive fluorescent dye in transfected CHO cells); assay type: cell-based; settings: 10 μM test substance; CHO cells transfected with Kv 1.3; relative to reference margatoxin
T1 construct: expressed in transfected cells; host or cells: CHO cells, stably transfected with the Kv 1.3 plasmid using DMRIE-C
T1 sequence (P22001 whole entry): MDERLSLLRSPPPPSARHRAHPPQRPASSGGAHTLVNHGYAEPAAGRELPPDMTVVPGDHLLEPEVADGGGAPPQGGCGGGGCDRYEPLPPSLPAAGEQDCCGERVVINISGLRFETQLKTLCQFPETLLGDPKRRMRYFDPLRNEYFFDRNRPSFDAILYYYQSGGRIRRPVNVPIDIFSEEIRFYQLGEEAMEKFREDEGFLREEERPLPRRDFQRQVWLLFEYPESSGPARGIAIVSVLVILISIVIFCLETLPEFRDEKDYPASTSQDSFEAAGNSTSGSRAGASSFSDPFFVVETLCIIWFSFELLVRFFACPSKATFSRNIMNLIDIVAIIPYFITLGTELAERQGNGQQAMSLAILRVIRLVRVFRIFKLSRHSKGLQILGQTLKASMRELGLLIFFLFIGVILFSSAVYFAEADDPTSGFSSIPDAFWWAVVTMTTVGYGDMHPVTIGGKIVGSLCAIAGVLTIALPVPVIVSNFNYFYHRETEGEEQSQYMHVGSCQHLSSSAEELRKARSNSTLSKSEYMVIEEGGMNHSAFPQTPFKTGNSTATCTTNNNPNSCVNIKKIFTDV
Source text: 2. In-Vitro Investigation of the Kv 1.3-Potassium Channel-Blocking Effect of the Substances
In this test model, known oocytes of the Chinese hamster (═CHO) are used which are stably transfected with the Kv 1.3-potassium channel. The blockade of the cell-inherent Kv 1.3-potassium channel activity in the transfected cells is accompanied by a positive shift in the membrane potential from approx. −40 mV to −30 mV, whereas in the wild-type CHO cells investigated in parallel no significant shift in the membrane potential is triggered. A change in the membrane potential is thus connected to the reduction in the Kv 1.3-potassium channel activity. By blocking the Kv 1.3-potassium channels e.g. with substances of Formula I and the resulting change in the membrane potential, an accumulation of a membrane potential-sensitive fluorescent dye in intracellular compartments of the oocytes and ultimately increasing fluorescence occurs. The change in the membrane potential of the oocytes is therefore measured indirectly via the increase in fluorescence of the membrane potential-senstive dyes.
The cells were transfected with the Kv 1.3 plasmid in known manner with a commercially obtainable transfection reagent (DMRIE-C from Gibco BRL, Germany). The successful transfection was verified by immunofluorescence and by “patch-clamp” investigations of the potassium ion current. The fluorescence measurements were performed on a Tecan Safire fluorescence reader from Tecan, Germany. In each case, the increase in the fluorescent intensity caused by the blockade of the Kv 1.3-potassium channels in the oocytes with substances of Formula I in a concentration of 10 μM was determined as characteristic variable. The increase in the fluorescent intensity was given in each case in percent (%) compared with an increase in the fluorescent intensity caused by the reference substance margatoxin. Margatoxin is known as a selective Kv 1.3-potassium channel blocker (see e.g. M. Garcia-Calvo et al., J. Biol. Chem. 268 (1993) 18866-18874).

[1] = system: left atrium of rats' hearts; experiment: Functional refractory period prolongation on isolated left atria of rats' hearts in vitro; parameters: species or system rat (Sprague-Dawley); settings: 10 μM
Experimental: 3. Investigation of the Functional Effectiveness of the Substances on the Atrium of Rats' Hearts in Vitro
In this test model it is determined to what extent the Kv 1.5-blocking substances of Formula I result in a prolongation of the functional refractory period in the left atrium of rats. The refractory period is the minimum possible elapsed time between the basic stimulus and additional stimulus in which a renewed contraction can be triggered. The extent of the prolongation of the functional refractory period is a measurement of the antiarrhythmic effectiveness of the substances according to the invention. The functional refractory period is determined by testing on the electrically stimulated preparation at what elapsed time from the preceding contraction a renewed contraction can be triggered by additional electrical stimuli.
The hearts were removed from freshly sacrificed rats (Sprague-Dawley, Charles-River, Germany). The left atria were isolated and fastened to force transducers in a temperature-controlled (30° C.), gasified (O2 95%, CO2 5%) organ bath which was filled with modified Tyrode solution (all values in mM: NaCl 137; KCl 2.7; CaCl2 1.8; MgCl2 0.8; NaHCO3 11.9; NaH2PO4 0.6; glucose 5). In order to trigger regular contractions, the preparations were electrically stimulated (rectangular pulses, pulse magnitude 3.5× threshold stimulus, pulse width 1.5 ms, frequency 1 Hz). Initially, the initial value of the functional refractory period was determined by applying extra pulses in addition to the basic stimulus, the elapsed time from the preceding basic stimulus being shortened until no further additional contraction could be triggered. Then the cumulative addition of increasing concentrations (0.1-10 μM) of the substances of Formula I took place at intervals of 20 min. each, the refractory period being determined again in each case 18 min. after the addition had taken place. Before the measurement, stock solutions of the test substances (3.2 and 0.32 mM in 100% DMSO) were prepared. In order to achieve the desired final concentrations of the substances (0.1-10 μM) in the organ bath (volume 100 ml), corresponding volumes of these stock solutions were then poured into the organ bath.
In each case the prolongation of the functional refractory period (FRP) in the left atrium of the rats' hearts in milliseconds observed after the addition of 10 μM of the respective substance of Formula I to the atrial preparations was given as characteristic variable.

[2] = system: hearts of anaesthetised cats; experiment: Atrial and ventricular fibrillation threshold in anaesthetised cats in vivo; parameters: species or system cat; settings: anaesthetized cats, dose 30 μmol/kg i.v.; for AFT (increase in the atrial fibrillation threshold) / VFT (increase in the ventricular fibrillation threshold): percent of value before administration
Source text: 5. Investigation of the Functional Effectiveness of the Substances on the Hearts of Anaesthetised Cats in Vivo
In the test model shown below, it was shown that the substances according to the invention at most have a marked atrial-selective effect on the heart. After administration of the substances according to the invention, a significant increase in the atrial fibrillation threshold—i.e. the current intensity at which atrial fibrillation occurs—was observed. At the same time, on the other hand, the ventricular fibrillation threshold is influenced only minimally.
Living cats were anaesthetised with chloralose/urethane (50/300 mg/kg i.v.) and were ventilated with ambient air. Then, following thoracotomy, stimulating electrodes were attached to the right atrium and the ventricle. The atrial and ventricular fibrillation threshold was determined in known manner by administration of rectangular pulses of increasing current intensity until atrial or ventricular fibrillation occurred (for performance see in detail: Br. J. Pharmac. 17 (1961) 167; Hdb. exp. Pharmacol. XVI/3 (1975) 131; Pharmacol. Res. 25 Suppl. 2 (1992) 156). The test substances of Formula I were dissolved in propylene glycol (80%) and administered intravenously in increasing doses (5-30 μmol/kg). Atrial and ventricular fibrillation thresholds were then determined at 5-minute intervals in known manner after the addition of the respective dose. The increase in the respective fibrillation threshold due to the substances investigated was expressed in percent of the value before administration of substance, i.e. a doubling of the fibrillation threshold corresponds to an increase of 100%.

SMILES	Increase in the fluorescent intensity (% margatoxin) (Kv 1.3-potassium channel)	FRP prolongation [1]	Selectivity factor (AFT:VFT) [2]	AFT (increase in the atrial fibrillation threshold) [2]	VFT (increase in the ventricular fibrillation threshold) [2]
CC1(C)Oc2ccc(CC(=O)NC3CCCc4ccccc43)cc2C(NS(=O)(=O)c2cccc(F)c2)C1O (mixture of isomers) [Example 13]	53 % margatoxin	28 ms	–	–	–
CCc1ccc(S(=O)(=O)N[C@@H]2c3cc(CC(=O)N[C@@H]4CCCc5ccccc54)ccc3OC(C)(C)[C@H]2O)cc1 [Example 2, 2-((3S,4R)-4-{[(4-ethylphenyl)sulfonyl]amino}-3-hydroxy-2,2-dimethyl-3,4-dihydro-2H-chromen-6-yl)-N-[(1R)-1,2,3,4-tetrahydronaphth-1-yl]acetamide]	72 % margatoxin	20 ms	17	261%	15%
CCc1ccc(S(=O)(=O)N(CC(C)(C)C)C2c3cc(CC(=O)NCc4ccccc4)ccc3OC(C)(C)C2O)cc1 (stereo not drawn) [Example 4, N-benzyl-2-{4-[[(4-ethylphenyl)sulfonyl](neopentyl)amino]-3-hydroxy-2,2-dimethyl-3,4-dihydro-2H-chromen-6-yl}acetamide]	–	17 ms	12	226%	19%
CCc1ccc(S(=O)(=O)N(CC(C)(C)C)[C@@H]2c3cc(CC(=O)NCc4ccccc4)ccc3OC(C)(C)[C@H]2O)cc1 [Example 7]	–	24 ms	–	–	–
CCc1ccc(S(=O)(=O)N(CC(C)(C)C)[C@H]2c3cc(CC(=O)NCc4ccccc4)ccc3OC(C)(C)[C@@H]2O)cc1 [Example 8]	–	17 ms	–	–	–
CCc1ccc(S(=O)(=O)N[C@@H]2c3cc(CC(=O)N[C@H]4CCCc5ccccc54)ccc3OC(C)(C)[C@H]2O)cc1 [Example 9]	107 % margatoxin	30 ms	7	213%	29%
CCc1ccc(S(=O)(=O)N(CC(C)(C)C)C2c3cc(CC(=O)NCCc4ccccc4)ccc3OC(C)(C)C2O)cc1 (stereo not drawn) [Example 10]	82 % margatoxin	20 ms	13	241%	19%
CCc1ccc(S(=O)(=O)NC2c3cc(CC(=O)N4CCN(c5ccccc5)CC4)ccc3OC(C)(C)C2O)cc1 (stereo not drawn) [Example 16]	–	20 ms	–	–	–
